US20140336182A1, “Aurora Kinase Modulators and Method of Use” (Amgen Inc., priority 2013, published 2014)

Test system: HeLa cells
Assay: HeLa cell 24 hr ploidy assay (DNA content)
Assay type: cell-based
Conditions: Homo sapiens, HeLa, 4N ploidy, average, read-out: 24h_4NPloidy EC50_IP (uM Avg)
Procedure: HeLa cell 24 hr ploidy assay protocol
The purpose of this assay is to evaluate the ability of selected individual compounds to induce Deoxyribonucleic acid (DNA) content (ploidy) in cells through failed cell division. Cell cycle analysis is a rapid and efficient way to evaluate the status of DNA content (ploidy) of a given cell. HeLa cells (1×10^4 HeLa cells/well) in 100 ul of media (MEM+10% FBS) were plated in 96-well plates (Packard View) and cultured for 24 hrs at 37° C. maintained in a 5% CO2 atmosphere. […] The compounds were serially diluted in DMSO (0.25% final concentration). The cells were fixed (3.7% Formaldehyde and 1% glutaraldehyde) and permeabilized (1×PBS with 1% BSA and 0.2% Triton X-100) in preparation for nuclear staining. The well plates were stained for 45 minutes at RT in the dark using Hoechest 33342 nuclear stain at 0.5 ug.ml (Stock of 10 mg/ml, Invitrogen, CA, Cat #H3570). The nuclear stain was removed by aspiration and the cells were washed with wash buffer. A Cellomics Array Scan Vti plate reader was used to acquire the DNA ploidy data of the cells using Cell Cycle bioapplication. Numbers for each of “valid cell count/well”, “% of 4N cells” and “% of >4Ncells” were calculated with the assistance of an Activity Base 5.1ca software and dose curves were generated using an XLFit software. With XLFit, final EC50 IP and EC50 transit values, as well as the Max and Min, were calculated for each curve.

SMILES	EC50 [µM]
COc1cnc2c(Oc3ccc(Nc4nnc(-c5ccncc5OC)c5ccccc45)cc3)ccnc2c1 [compound 130]	> 1.2
COc1cnc2c(Oc3ccc(Nc4nnc(-c5ccccc5)c5ccccc45)cc3)ccnc2c1 [compound 79, N-(4-((7-(methyloxy)-1,5-naphthyridin-4-yl)oxy)phenyl)-4-phenyl-1-phthalazinamine]	0.041
COc1cnc2c(Oc3ccc(Nc4nnc(-c5cc(C)ccn5)c5ccccc45)cc3)ccnc2c1 [compound 116, N-(4-((7-(methyloxy)-1,5-naphthyridin-4-yl)oxy)phenyl)-4-(4-methyl-2-pyridinyl)-1-phthalazinamine]	0.179

Continued, values first:

EC50 [µM]	SMILES
0.485	COc1cnc2c(Oc3cnc(Nc4nnc(-c5ccccc5)c5ccccc45)nc3)ccnc2c1 [compound 84]
0.349	CCc1cc(-c2ccccc2)nnc1Nc1ccc(Oc2ccnc3cc(OC)cnc23)nc1 [compound 83, 4-ethyl-N-(6-((7-(methyloxy)-1,5-naphthyridin-4-yl)oxy)-3-pyridinyl)-6-phenyl-3-pyridazinamine]

Same assay, conditions: Homo sapiens, HeLa, HeLa cells, 4N ploidy, average, read-out: 24h_4NPloidy EC50_IP (uM Avg)

SMILES	EC50 [µM]
Cc1ccc(-c2nnc(Nc3ccc(Sc4ccnc5cccnc45)cc3)c3ccccc23)cn1 [compound 553]	0.001
c1ccc2c(-c3ccc4c(c3)OCO4)nnc(Nc3ccc(Oc4ccnc5ccsc45)cc3)c2c1 [compound 279]	0.011
COc1cnc2c(Oc3ccc(Nc4nnc(-c5ncc(C)s5)c5ccccc45)cc3)ccnc2c1 [compound 189]	0.191
COc1cc2c(Oc3ccc(Nc4nnc(-c5ccccc5)c5ccccc45)cc3)ccnc2cc1O [compound 422]	0.01
COc1cnc2c(Sc3ccc(Nc4nnc(N5CCN(CC(F)F)CC5)c5ccccc45)cc3)ccnc2c1 [compound 507]	0.018
Cn1cc(-c2ccc3c(Oc4ccc(Nc5nnc(-c6ccccc6)c6ccccc56)cc4)ccnc3c2)cn1 [compound 338, N-(4-(7-(1-methyl-1H-pyrazol-4-yl)quinolin-4-yloxy)phenyl)-4-phenylphthalazin-1-amine]	0.005
Cc1csc(-c2nnc(Nc3ccc(Sc4ccnc5cc(C#N)sc45)cc3)c3ccccc23)c1 [compound 459]	0.048
N#Cc1cc2nccc(Sc3ccc(Nc4nnc(-c5ccc6c(c5)OCO6)c5ccccc45)cc3)c2s1 [compound 457]	0.021
COc1cnc2c(Oc3ccc(Nc4nnc(-c5ccc(C(F)(F)F)c(Cl)c5)c5ccccc45)cc3)ccnc2c1 [compound 172, 4-(3-chloro-4-(trifluoromethyl)phenyl)-N-(4-((7-(methyloxy)-1,5-naphthyridin-4-yl)oxy)phenyl)-1-phthalazinamine]	0.034
COc1cnc2c(Sc3ccc(Nc4nnc(-c5ccn(C)c(=O)c5)c5ccccc45)cc3)ccnc2c1 [Example 396, 4-(4-(4-(7-Methoxy-1,5-naphthyridin-4-ylthio)phenylamino)phthalazin-1-yl)-1-methylpyridin-2(1 H)-one]	0.008
COc1cnc2c(Oc3ccc(Nc4nnc(-c5ccc(C)nc5)c5ccccc45)cc3)ccnc2c1 [compound 268]	0.066
COc1cnc2c(Oc3ccc(Nc4nnc(-c5csc6ccccc56)c5ccccc45)cc3)ccnc2c1 [compound 169]	0.027
COc1ccc2c(Oc3ccc(Nc4nnc(-c5ccccc5)c5ccccc45)cc3)c(F)cnc2c1 [compound 164]	0.076
CCc1cc(-c2ccc(C)cc2)nnc1Nc1ccc(Nc2ccnc3cc(C#N)ccc23)cc1 [compound 596]	0.084
COc1cnc2c(Oc3ccc(Nc4nnc(N5CC[C@@H]6CCCC[C@H]6C5)c5ccccc45)cc3)ccnc2c1 [compound 587]	0.14
COc1cnc2c(Oc3ccc(Nc4nnc(-c5ccc(SC)cc5)c5ccccc45)cc3)ccnc2c1 [compound 237]	0.03

SMILES	EC50 [µM]
Cc1cc2nccc(Sc3ccc(Nc4nnc(-c5ccc(Cl)cn5)c5ccccc45)cc3)c2s1 [compound 560]	0.023
COc1cnc2c(Oc3ccc(Nc4nnc(-c5ccc(C#N)cc5)c5ccccc45)cc3)ccnc2c1 [compound 181]	0.104
COc1cnc2c(Oc3ccc(Nc4nnc(-c5ccc(C)c(O)c5)c5ccccc45)cc3)ccnc2c1 [compound 449]	< 0.0023
c1ccc2c(Sc3ccc(Nc4nnc(-c5ccc6c(c5)OCO6)c5ccccc45)cc3)ccnc2c1 [compound 517]	0.011
COc1cc(F)cc2nccc(Oc3ccc(Nc4nnc(-c5ccc(Cl)cc5)c5ccccc45)cc3)c12 [compound 437]	0.005
CCc1ccc(-c2nnc(Nc3ccc(Oc4ccnc5cc(OC)cnc45)cc3)c3ccccc23)cc1 [compound 221]	0.015
COc1ccc2c(Oc3ccc(Nc4nnc(-c5ccc(C(F)(F)F)cc5)c5ccccc45)cc3)c(F)cnc2c1 [Example 39, N-(4-(3-fluoro-7-methoxyvquinolin-4-yloxy)phenyl)-4-(4-(trifluoromethyl)phenyl) phthalazin-1-amine]	≥ 1.2
COc1cnc2c(Oc3ccc(Nc4nnc(-c5ccc(F)c(Cl)c5)c5ccccc45)cc3)ccnc2c1 [compound 193, 4-(3-chloro-4-fluorophenyl)-N-(4-((7-(methyloxy)-1,5-naphthyridin-4-yl)oxy)phenyl)-1-phthalazinamine]	0.027
COc1cnc2c(Oc3ccc(Nc4nnc(-c5cc(CF)cs5)c5ccccc45)cc3)ccnc2c1 [Example 408, 4-(4-(Fluoromethyl)thiophen-2-yl)-N-(4-(7-methoxy-1,5-naphthyridin-4-yloxy)phenyl)phthalazin-1-amine]	0.025
COc1cnc2c(Sc3ccc(Nc4nnc(-c5ccc(C)c(N)c5)c5ccccc45)cc3)ccnc2c1 [compound 477]	0.001
N#Cc1cc2nccc(Sc3ccc(Nc4nnc(-c5ccc(Cl)cc5)c5ccccc45)cc3)c2o1 [compound 489]	0.017
Cc1ccc(-c2nnc(Nc3ccc(Oc4ccnc5ccsc45)cc3)c3ccccc23)cc1 [compound 252]	0.027
CCCc1cc(-c2ccccc2)nnc1Nc1ccc(Oc2ccnc3cc(C#N)ccc23)cc1 [compound 196]	0.342
COc1cnc2c(Sc3ccc(Nc4nnc(SC)c5ccccc45)cc3)ccnc2c1 [compound 514]	0.02
COc1cnc2c(Oc3ccc(Nc4nnc(-c5cccc(N6CCCCC6)c5)c5ccccc45)cc3)ccnc2c1 [compound 197]	0.021

Next, values leading:

EC50 [µM]	SMILES
0.019	Nc1ccc2nccc(Sc3ccc(Nc4nnc(-c5ccccc5)c5ccccc45)cc3)c2c1 [Example 399, N-(4-(6-Aminoquinolin-4-ylthio)phenyl)-4-phenylphthalazin-1-amine]
0.081	COc1cnc2c(Oc3ccc(Nc4nnc(-c5cc(F)cc(F)c5)c5ccccc45)cc3)ccnc2c1 [compound 539]
0.03	COc1cnc2c(Oc3ccc(Nc4nnc(-c5ccc(F)c(C)c5)c5ccccc45)cc3)ccnc2c1 [compound 246, 4-(4-fluoro-3-methylphenyl)-N-(4-((7-(methyloxy)-1,5-naphthyridin-4-yl)oxy)phenyl)-1-phthalazinamine]
0.002	COc1cc2nccc(Oc3ccc(Nc4nnc(-c5ccc(C)cc5)c5ccccc45)cc3)c2cc1C(N)=O [compound 211]
0.067	N#Cc1ccc2c(Oc3ccc(Nc4nnc(-c5ccc(Cl)c(C#N)c5)c5ccccc45)cc3)ccnc2c1 [compound 231]
0.032	Clc1ccc(-c2nnc(Nc3ccc(Sc4ccnc5ccoc45)cc3)c3ccccc23)nc1 [Example 391, 4-(5-Chloropyridin-2-yl)-N-(4-(furo[3,2-b]pyridin-7-ylthio)phenyl)phthalazin-1-amine]
0.073	Cc1csc(-c2nnc(Nc3ccc(Oc4ccnc5ccsc45)cc3)c3ccccc23)c1 [compound 289]
0.007	Cc1csc(-c2nnc(Nc3ccc(Sc4ccnc5ccc(=O)[nH]c45)cc3)c3ccccc23)c1 [compound 589]
0.043	COc1ccc2ncnc(Oc3ccc(Nc4nnc(-c5ccc(Cl)cc5)c5ccccc45)cc3)c2c1 [compound 564]
0.062	COCCNc1nnc(Nc2ccc(Sc3ccnc4cc(OC)cnc34)cc2)c2ccccc12 [compound 533]
0.009	COc1ccc2nccc(Sc3ccc(Nc4nnc(-c5cc(C)cs5)c5ccccc45)cc3)c2n1 [compound 549]
0.021	Cc1cc2nccc(Sc3ccc(Nc4nnc(-c5ccc(C)c(N)c5)c5ccccc45)cc3)c2o1 [compound 492]
0.076	O=C(c1cc2nccc(Sc3ccc(Nc4nnc(-c5ccccc5)c5ccccc45)cc3)c2s1)N1CCOCC1 [compound 313]
> 1.2	COc1cnc2c(Oc3ccc(Nc4nnc(-c5ccc(C(N)=O)cc5)c5ccccc45)cc3)ccnc2c1 [compound 177]
0.025	CC(=O)Nc1ccc2nccc(Oc3ccc(Nc4nnc(-c5ccccc5)c5ccccc45)cc3)c2c1 [Example 43, N-(4-(4-(4-Phenylphthalazin-1-ylamino)phenoxy)quinolin-6-yl)acetamide]
0.079	FC(F)(F)Oc1ccc2c(Sc3ccc(Nc4nnc(-c5ccccc5)c5ccccc45)cc3)ccnc2c1 [compound 497]
> 1.2	c1ccc(-c2nnc(Nc3ccc(Oc4ncnc5nc[nH]c45)cc3)c3ccccc23)cc1 [compound 257]
> 1.2	Clc1ccc(-c2nnc(Nc3ccc(CN4CCOc5ccccc54)cc3)c3ccccc23)cc1 [compound 349]
